Test system: mushroom tyrosinase
Assay: in-vitro tyrosinase inhibition assay (substrate L-tyrosine)
Format: biochemical
Settings: 200 μM, positive control
Text: An in-vitro tyrosinase inhibition assay was used to determine whether the whitening ingredients were directly affecting the regulation of the tyrosinase activity (using tyrosine as a substrate). The ingredients with a whitening effect mainly have a mechanism of action that inhibits some processes in the melanin biosynthetic pathway in vivo, which is the initial process in which tyrosinase is involved in the most important process in the synthetic pathway. Most of the whitening ingredients inhibit the activity of tyrosinase and reduce the production of melanin in the skin, resulting in offering a skin whitening effect. […] (1) Test method: For an in-vitro tyrosinase inhibition test of the test substance, mozuku-derived fucoidan extract, the tyrosinase inhibitory ability was measured using an in-vitro tyrosinase inhibition assay. […] The tyrosinase inhibitory effect of the test substance was evaluated by measuring the absorbance of DOPAchrome produced from the substrate L-tyrosine by the enzymatic reaction of tyrosinase. […] A microplate reader system (SpectraMax® i3x Multi Mode Detection Platform Molecular Devices, USA) was used to measure the absorbance at 475 nm. […] As determined by the Student's t test, P<0.05 was considered statistically significant. The in-vitro tyrosinase inhibition activity against the substrate L-tyrosine was calculated according to the following equation: […] […]

OC[C@H]1O[C@@H](Oc2ccc(O)cc2)[C@H](O)[C@@H](O)[C@@H]1O [arbutin]
tyrosinase inhibition activity against L-tyrosine with respect to the negative control: 50.47±0.95%

Source: US11596591B2, “Manufacturing method for cosmetic composition of fucoidan and cosmetic composition comprising low molecular weight fucoidan using the same” (priority 2021, dated 2023)
